Consider seven compounds from patent US12286437B2, “Cardiac sarcomere inhibitors” (Cytokinetics, Inc., priority 2021, dated 2025).

What is called clearance is the rate of elimination divided by the concentration.

In series [1] the target is T1, CYP2C8 (Homo sapiens, UniProt P10632).
T1 construct: Pooled human microsomes and selective CYP probe substrates were used; from tissue; host or cells: pooled human liver microsomes
T1 sequence (P10632 1-490): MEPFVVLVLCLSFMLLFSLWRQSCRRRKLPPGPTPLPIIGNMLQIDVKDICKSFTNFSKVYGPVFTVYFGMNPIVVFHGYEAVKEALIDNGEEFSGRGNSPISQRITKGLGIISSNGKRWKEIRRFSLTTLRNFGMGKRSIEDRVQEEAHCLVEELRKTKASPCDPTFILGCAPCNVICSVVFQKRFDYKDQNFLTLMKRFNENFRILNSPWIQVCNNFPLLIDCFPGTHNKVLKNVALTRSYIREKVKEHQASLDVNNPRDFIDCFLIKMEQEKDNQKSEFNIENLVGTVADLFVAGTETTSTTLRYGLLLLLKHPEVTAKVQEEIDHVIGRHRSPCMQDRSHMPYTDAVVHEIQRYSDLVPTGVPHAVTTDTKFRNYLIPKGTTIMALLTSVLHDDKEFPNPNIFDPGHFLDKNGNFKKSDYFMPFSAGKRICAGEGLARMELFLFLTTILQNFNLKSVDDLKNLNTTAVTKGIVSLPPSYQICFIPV
The series is described as follows: Time-dependent inhibition of CYP2C8 in human liver microsomes. The settings on record: for (% Activity NADPH T0)/(% Activity NADPH T30): fold change; for activity at 30 min, 25 µM / activity at 0 min, 25 µM / activity at 30 min, 50 µM / activity at 0 min, 50 µM: pooled human liver microsomes, human liver microsomes; for activity at 30 min, 25 µM / activity at 30 min, 50 µM: after 30 minutes incubation, read-out: % Activity NADPH T30; for activity at 0 min, 25 µM / activity at 0 min, 50 µM: time zero, read-out: % Activity NADPH T0. The class given is in vitro ADME. As to the method: An assessment of the time-dependent Inhibitory Potential of the test compounds against Principal Human Cytochrome P450 Isozymes using Human Liver Microsomes was also carried out using standard methods (Grimm et al, Drug Metab. Dispos., July; 37(7):1355-70. doi: 10.1124/dmd.109.026716, 2009). Pooled human microsomes and selective CYP probe substrates were used for in vitro assessment of test compounds at 25 and 50 μM as time-dependent inhibitors of […] human hepatic cytochrome P450 isozymes (CYP1A2, 2B6, 2C9, 2C19, 2D6, and 3A4). LC-MS/MS was used to quantify metabolite formation. The inhibition of each P450 enzyme in human liver microsomes was measured as the percentage decrease in the activity of marker metabolite formation as measured by LC-MS/MS compared to non-inhibited controls (=100% activity) at time zero and after 30 minutes incubation. The occurrence of any time dependent inhibition was then expressed as the fold change in enzyme activity at time zero relative to the activity after 30 minutes incubation.
A general note: Liver microsomes are vesicles of endoplasmic reticulum, rich in cytochrome P450 enzymes.

Series [2] in a line: Projected single-dose CL and Vss values in humans (allometric scaling of mouse, rat, dog, monkey IV PK). The settings on record: human, projected by allometric scaling from single-dose IV PK. How it is done:
Allometric scaling for the prediction of human Clearance and Volume of Distribution was based on interspecies simple allometric scaling of mouse, rat, dog, and cynomolgus monkey intravenous pharmacokinetic parameters (Boxenbaum, J Pharmacokinet Biopharm 10:201-27, 1982). Prediction of human CL was performed by extrapolating pre-clinical species' plasma intravenous clearance. The ‘rule of exponents’ (Mahmood & Balian, Life Sci 59:579-85, 1996) was examined in this prediction, where it has been proposed that, when the exponent of simple allometry lies between […] and 0.99, a correction factor based on Maximum Life Span (MLP) of this species can be applied and, when the exponent of simple allometry is greater than 1.0, a correction factor based on Brain Weight (BrW) can be applied, or a protein binding correction can be applied when available. In a similar manner, simple allometric scaling was employed to predict human Volume of Distribution. This method has been used successfully for varied drugs (Ward & Smith, Drug Metab Dispos 32:612-19, 2004; McGinnity et al., Curr Drug Metab 8:463-79, 2007).

Series [3] in a line: Dog single dose pharmacokinetics. The settings on record: male, beagle, plasma, IV; for half-life: read-out: t½ (converted); for Vd: read-out: Vss. The class given is in vivo, beagle dogs. How it is done:
Non-naïve male beagle dogs (8 months-3 years of age, body weight 8-13 kg) were used in this study. All animals for IV administration had free access to food and water; all animals for PO were fasted overnight prior to dosing and were fed approximately 6 hours after dosing. For the animals in PO group, pentagastrin (6.0 μg/kg, i.m.) was administrated 20 minutes before dosing PO formulation and 1.5 hours after the first pentagastrin dosing. The dosing volume was 0.024 mL/kg, the concentration was 250 μg/mL in DMSO/1 N NaOH/PBS. 10 mL of 0.001 N HCl was used to wash the gavage catheter for each animal. The IV dose solution was prepared in 10% DMA/50% PG/40% HPβCD solution (40% w/v aqueous HPβCD) at a concentration of 1.0 mg/mL. The oral dose suspension was prepared by suspending the compound in 0.5% HPMC/0.1% Tween 80 in distilled water at a concentration of 0.2 mg/mL. Concentrations of IV and PO doses were measured at the end of the study. PK parameters were calculated using the nominal dose values if the measured values were within 20% of the nominal values. Blood samples were collected by venipuncture of peripheral veins except the dosing vein at pre-dose, 5 15, 30 min, 1, 2, 4, 6, 8, 24 and 48 h post-dose. Blood samples were centrifuged and resultant plasma was frozen for bioanalysis. Plasma samples were stored at −80° C. before analysis. Plasma samples were analyzed for compound concentrations using the LC/MS/MS method. Briefly, a 50 μL aliquot of each plasma sample was mixed with 100 μL of acetonitrile that contained an internal standard. The mixture was vortexed and centrifuged. Ten (10) μL of the resulting solution was injected onto a reverse-phase C18 column and the resultant peaks detected on a LC/MS/MS equipped with a turbo ionspray ionization source. Sample concentrations below the limit of quantification (BLQ) were treated as zero for PK calculations. PK parameters were estimated from individual animals using noncompartmental analysis of the concentration-time data (Phoenix WinNonLin software, version 64; Pharsight, Mountain View, CA). The elimination rate constant (k) was calculated as the absolute value of the slope of the linear regression of logarithm (log) of the concentration versus time for the last three data points of the concentration-time profiles. Apparent elimination half-life (t1/2) values were calculated as ln(2)/k. Area under the concentration-time curve (AUC) values were estimated using linear trapezoidal method. AUCt values were calculated from the dosing time to the last measurable concentration. AUC∞ values were calculated as the sum of the corresponding AUCt and the ratio of the last detectable concentration divided by k. Plasma clearance (CL) was calculated from Dose/AUC∞. Mean resident time extrapolated to infinity (MRT∞) was estimated by moment analysis. Vss was calculated from MRT∞×CL. Maximum concentration (Cmax) and time to reach Cmax (tmax) were recorded as observed. As this was a cross-over study, bioavailability was calculated dAUC∞,po/dAUC∞,iv×100% where dAUC was the dose normalized AUC value from the same animal given IV and PO dose. Data for compounds tested are provided in Table D. Compounds tested were prepared in accordance with the synthetic procedures described herein.

As for `C[C@H]1CC[C@H](N2CC(=O)N(Cc3ccc(F)c(F)c3)C3(CN(C=O)C3)C2=O)CC1` [Compound 4, 5-(3,4-difluorobenzyl)-8-((1r,4r)-4-methylcyclohexyl)-6,9-dioxo-2,5,8-triazaspiro[3.5]nonane-2-carbaldehyde], in series [1] (CYP2C8, 25 μM), the “(% Activity NADPH T0)/(% Activity NADPH T30)” value is on record as 1.0. Further, the “(% Activity NADPH T0)/(% Activity NADPH T30)” value in series [1] (CYP2C8, 50 μM) turned out to be 1.2. In addition, in series [2], the “Projected CL” value is listed as 1.84 mL/min/kg, the “Projected Vss” value is recorded as 4.51 L/kg and the “Projected t½” value is given as 28.3 h. For the same compound, in series [3], the half-life is 9.54 h.
As for `C[C@H]1CC[C@H](N2CC(=O)N(Cc3ccc(F)c(F)c3)C3(CN(C(N)=O)C3)C2=O)CC1` [Compound 5, 5-(3,4-difluorobenzyl)-8-((1r,4r)-4-methylcyclohexyl)-6,9-dioxo-2,5,8-triazaspiro[3.5]nonane-2-carboxamide], in series [1] (CYP2C8, 25 μM), the “(% Activity NADPH T0)/(% Activity NADPH T30)” value was 1.0; the activity at 30 min, 25 µM was determined as 88%; the activity at 0 min, 25 µM turned out to be 87%. Moreover, in series [1] (CYP2C8, 50 μM), the “(% Activity NADPH T0)/(% Activity NADPH T30)” value was determined as 2.0; the activity at 30 min, 50 µM is 53%; the activity at 0 min, 50 µM amounted to 104%.
Take `Cc1cc(CN2C(=O)CN([C@H]3CC[C@H](C)CC3)C(=O)C23CN(C(N)=O)C3)ccc1F` [Compound 6, 5-(4-fluoro-3-methylbenzyl)-8-((1r,4r)-4-methylcyclohexyl)-6,9-dioxo-2,5,8-triazaspiro[3.5]nonane-2-carboxamide]: in series [1] (CYP2C8, 25 μM), the “(% Activity NADPH T0)/(% Activity NADPH T30)” value is 0.9; the activity at 30 min, 25 µM stood at 88%; the activity at 0 min, 25 µM was determined as 79%. In addition, in series [1] (CYP2C8, 50 μM), the “(% Activity NADPH T0)/(% Activity NADPH T30)” value is listed as 1.1; the activity at 30 min, 50 µM is 80%; the activity at 0 min, 50 µM worked out at 86%.
Regarding `C[C@H]1CC[C@H](N2CC(=O)N(Cc3ccc(F)c(Cl)c3)C3(CN(C(N)=O)C3)C2=O)CC1` [Compound 7, 5-(3-chloro-4-fluorobenzyl)-8-((1r,4r)-4-methylcyclohexyl)-6,9-dioxo-2,5,8-triazaspiro[3.5]nonane-2-carboxamide], in series [1] (CYP2C8, 25 μM), the “(% Activity NADPH T0)/(% Activity NADPH T30)” value was determined as 1.1; the activity at 30 min, 25 µM was found to be 64%; the activity at 0 min, 25 µM was determined as 72%. In series [1] (CYP2C8, 50 μM), the “(% Activity NADPH T0)/(% Activity NADPH T30)” value is given as 1.1; the activity at 30 min, 50 µM stood at 103%; the activity at 0 min, 50 µM was 109%.
Turning to `CC(C)N1CC(=O)N(Cc2ccc(Cl)c(F)c2)C2(CN(c3cccnn3)C2)C1=O` [Compound 8, 5-(4-chloro-3-fluorobenzyl)-8-isopropyl-2-(pyridazin-3-yl)-2,5,8-triazaspiro[3.5]nonane-6,9-dione], in series [1] (CYP2C8, 25 μM), the “(% Activity NADPH T0)/(% Activity NADPH T30)” value worked out at 1.0; the activity at 30 min, 25 µM worked out at 117%; the activity at 0 min, 25 µM worked out at 117%. In addition, in series [1] (CYP2C8, 50 μM), the “(% Activity NADPH T0)/(% Activity NADPH T30)” value was 1.0; the activity at 30 min, 50 µM was 112%; the activity at 0 min, 50 µM was determined as 110%.
For `CC(C)N1CC(=O)N(Cc2ccc(C(F)(F)F)cc2)C2(CN(c3cccnn3)C2)C1=O` [Compound 13, 8-isopropyl-2-(pyridazin-3-yl)-5-(4-(trifluoromethyl)benzyl)-2,5,8-triazaspiro[3.5]nonane-6,9-dione], in series [1] (CYP2C8, 25 μM), the “(% Activity NADPH T0)/(% Activity NADPH T30)” value came out at 1.2; the activity at 30 min, 25 µM came to 98%; the activity at 0 min, 25 µM worked out at 116%. Moreover, in series [1] (CYP2C8, 50 μM), the “(% Activity NADPH T0)/(% Activity NADPH T30)” value is 1.0; the activity at 30 min, 50 µM amounted to 106%; the activity at 0 min, 50 µM was determined as 106%. For the same compound, in series [2], the “Projected CL” value is given as 4.66 mL/min/kg, the “Projected Vss” value is 3.43 L/kg and the “Projected t½” value came out at 8.51 h. For the same compound, in series [3], the clearance came out at 7.45 mL/min/kg, the Vd came to 2.85 L/kg and the half-life was 6.44 h.
As to `C[C@H]1CC[C@H](N2CC(=O)N(Cc3ccc(Cl)cc3)C3(CN(C(N)=O)C3)C2=O)CC1` [Compound 18, 5-(4-chlorobenzyl)-8-((1r,4r)-4-methylcyclohexyl)-6,9-dioxo-2,5,8-triazaspiro[3.5]nonane-2-carboxamide], in series [1] (CYP2C8, 25 μM), the “(% Activity NADPH T0)/(% Activity NADPH T30)” value is reported as 0.7; the activity at 30 min, 25 µM is 100%; the activity at 0 min, 25 µM worked out at 65%. Also, in series [1] (CYP2C8, 50 μM), the “(% Activity NADPH T0)/(% Activity NADPH T30)” value is 1.3; the activity at 30 min, 50 µM worked out at 76%; the activity at 0 min, 50 µM was 100%. In addition, in series [2], the “Projected CL” value was determined as 3.3 mL/min/kg, the “Projected Vss” value came out at 7.1 L/kg and the “Projected t½” value came to 25 h. Moreover, in series [3], the clearance was 18.8 mL/min/kg, the Vd came out at 5.73 L/kg and the half-life was 5.8 h.
